US12319946B2, “Methods for producing modified bacteria for production of nitroaromatics” (priority 2018, dated 2025)
“Also recorded” adds a separate entry of the source.

Key:
[1] = tested on: E. coli BL21-GOLD (DE3) carrying Nitrotrp pathways (TB14, BsNOS, GDH); assay type: cell-based, Escherichia coli; settings: for nitration of fed analog by E. coli-II: 5 mM analog fed to fermentation medium of E. coli-II
[2] = tested on: E. coli BL21 Gold cells expressing TB14, BsNOS and GDH; assay: Whole-cell biotransformation (whole cell nitration system, Example 2/278); assay type: cell-based, Escherichia coli; settings: TB medium, analogue fed as substrate
Protocol: For analytical analysis, an HPLC column was kept at 40° C., water with 0.1% formic acid was used as solvent A and acetonitrile with 0.1% formic acid was used as solvent B. The column was eluted first with 1% solvent B for 1 min and then with a linear gradient of 1-20% solvent B in 8 min, followed by another linear gradient of 20-99% solvent B in 2 min. The column was further cleaned with 99% solvent B for 2 min and then re-equilibrated with 1% solvent B for 2 min. The flow rate was set as 1 ml/min, and the products were detected at […] with a PDA detector.
E. coli BL21 Gold cells containing pETDuet and pET28b derived plasmids were grown from glycerol stock overnight in 5 mL Luria broth with 0.1 mg/mL ampicillin and 0.05 mg/mL kanamycin (37° C., 250 rpm). The pre-culture was used to inoculate 100 mL of Terrific broth medium (0.1 mg/mL ampicillin and 0.05 mg/mL kanamycin) in a 500 mL flask; this culture was incubated at 37° C., 250 rpm to OD600=0.6-0.8. The cultures were cooled on water-ice mixture and induced with 0.5 mM IPTG, Expression was conducted at 18° C., 250 rpm, for 20 h. For the culture of E. coli BL21 Gold cells containing pACYCDuet and pET28b derived plasmids, 0.05 mg/mL chloramphenicol was used instead of 0.05 mg/mL kanamycin. The cultures were then harvested and resuspended to OD600=30 in test medium, Aliquots of the cell suspension were used in the whole cell transformation. To a test tube was added 5 mL cell suspension, 25 μL 100 mM L-Trp or L-Trp analogues, and 25 μL 100 mM L-Arg when necessary. The mixture was then incubated at different conditions. The reactions were quenched by adding equal volume of methanol and the resulting mixture was aliquoted and transferred to a microcentrifuge tube and centrifuged at 14,000 rpm for 10 minutes. The supernatant was transferred to an HPLC vial and analyzed by LC-MS.

[3] = biological target: T1, TnaA (Escherichia coli, UniProt P0A853); assay: TnaA assay (in vitro, recombinant tryptophanase); assay type: biochemical, E. coli; settings: 0.1 μM purified TnaA, 0.5 mM substrate, 37° C., 10 min
T1 construct: made in house; host or cells: E. coli BL21-GOLD (DE3)
Protocol: The reactions contained 0.1 μM purified TnaA and 0.5 mM substrate and incubated at 37° C. for 10 min. No 4-nitro indole was produced in the enzyme reaction.
PCR amplicons were analyzed by agarose gel and extracted with GeneJET Gel Extraction Kit (Thermo). Purified PCR products and pET28b were digested with corresponding restriction enzymes, purified and then ligated to create expression constructs. Insert in the construct was sequenced to exclude potential errors introduced during PCR amplification and gene manipulation. Recombinant TnaA was prepared in E. coli BL21-GOLD (DE3). The enzyme assay (0.1 mL) contained 100 mM potassium phosphate buffer (pH 8.3), 0.2 mM pyridoxal 5-phosphate and 0.1 μM purified tnaA. The reaction mixtures were pre-warmed at 37° C. for 5 minutes, and initiated by adding 0.5 mM 1-Trp or Nitrotrp as substrate. After 10 minutes, the reactions were quenched by mixing well with 0.2 mL of methanol. After centrifugation at 14,000 rpm for 30 minutes, the supernatant was subject to HPLC analysis. All experiments were independently repeated at least twice.

T1 sequence (P0A853 whole entry): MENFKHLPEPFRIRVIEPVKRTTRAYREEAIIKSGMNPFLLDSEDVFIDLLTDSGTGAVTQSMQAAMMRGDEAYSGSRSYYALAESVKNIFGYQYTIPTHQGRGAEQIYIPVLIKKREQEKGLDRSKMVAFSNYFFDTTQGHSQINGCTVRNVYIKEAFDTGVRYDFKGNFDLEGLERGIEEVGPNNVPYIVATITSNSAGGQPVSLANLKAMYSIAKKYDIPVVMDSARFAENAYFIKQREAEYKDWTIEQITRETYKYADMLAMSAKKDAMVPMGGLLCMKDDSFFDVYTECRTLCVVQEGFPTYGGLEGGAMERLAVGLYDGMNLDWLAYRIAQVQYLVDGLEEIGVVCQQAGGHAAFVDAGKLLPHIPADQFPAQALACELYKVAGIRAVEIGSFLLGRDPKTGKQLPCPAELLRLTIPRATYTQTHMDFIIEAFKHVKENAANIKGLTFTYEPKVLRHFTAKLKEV

Row | Structure (SMILES) | nitration activity of the strain toward substrate (rank) ([1]; 5 mM analog fed to E. coli-II) | nitration of fed analog by E. coli-II [1] | conversion rates in whole cell-based nitration [2] | nitration of tryptophan analogue by whole cell nitration system [2] | conversion/decomposition by recombinant TnaA [3]
1 | Cc1ccc2[nH]cc(C[C@H](N)C(=O)O)c2c1 [Example 5-Me-Trp, 5-Me-Trp] | highest nitration activity | nitrated | highest conversion rates | successfully nitrated | –
2 | N[C@@H](Cc1c[nH]c2cc(F)ccc12)C(=O)O [Example 6-F-Trp, 6-F-Trp] | – | nitrated | – | successfully nitrated | –
3 | N[C@@H](Cc1c[nH]c2ccc(F)cc12)C(=O)O [Example 5-F-Trp, 5-F-Trp] | – | nitrated | highest conversion rates | successfully nitrated | –
4 | C[C@](N)(Cc1c[nH]c2ccccc12)C(=O)O [α-Me-Trp] | – | nitrated | – | successfully nitrated | –
5 | N[C@@H](Cc1c[nH]c2cccc([N+](=O)[O-])c12)C(=O)O [Nitrotrp] | – | – | – | – | does not convert; also recorded: not observed
6 | N[C@@H](Cc1c[nH]c2cccc([N+](=O)[O-])c12)C(=O)O [Example 4-NO2-L-Trp, 4-NO2-L-Trp] | – | – | – | – | not able to decompose
7 | Cc1cccc2[nH]cc(C[C@H](N)C(=O)O)c12 [Example 4-Me-Trp, 4-Me-Trp] | – | nitrated | highest conversion rates | successfully nitrated | –
8 | Cc1cccc2c(C[C@H](N)C(=O)O)c[nH]c12 [Example 7-Me-Trp, 7-Me-Trp] | – | nitrated | – | successfully nitrated | –
9 | N[C@@H](Cc1c[nH]c2cccc(F)c12)C(=O)O [Example 4-F-Trp, 4-F-Trp] | – | nitrated | – | successfully nitrated | –
10 | COc1ccc2[nH]cc(C[C@H](N)C(=O)O)c2c1 [Example 5-MeO-Trp, 5-MeO-Trp] | – | nitrated | – | successfully nitrated | –
11 | N[C@@H](Cc1c[nH]c2ccccc12)C(=O)O [L-Trp, L-tryptophan] | – | – | – | – | produced indole
